Data taken from PMC12373846, “Hemoglobin as a pseudoperoxidase and drug target for oxidative stress-related diseases” (Signal Transduction and Targeted Therapy, 2025).

Assays:
purified human Hb = biological target: T1, purified human Hb (Homo sapiens, UniProt P68871); test: ITC binding affinity assay; conditions: Hb+KDS12025, without H2O2
T1 construct: purchased MP Biomedical 55914
Protocol: All ITC experiments were conducted via a MicroCal AutoiTC200 (Malvern Panalytical) at the Korea Basic Science Institute (Ochang, Korea). Binding affinity was measured via the addition of 40 µl of 5 mM KDS12025 (ligand) and 200 µl of 200 μM purified human Hb (protein) (MP Biomedical, 55914) in sodium phosphate buffer (pH 7.2). For each titration experiment, 2 µl of KDS12025 was injected into purified human Hb for 4 s at intervals of 180 s at 25 °C. Overall, 19 injections were performed for each experiment, and the data were analyzed via MicroCal Origin 8.0 software.

[1] = tested on: primary cultured hippocampal astrocytes; test: oROS-G intracellular H2O2 imaging; assay type: cell-based, mouse; conditions: for oROS-G intensity: Fig. 6e
Protocol: Primary hippocampal astrocytes were obtained from postnatal day 0‒2 (P0‒2) C57BL/6 mice as previously described.[73] The hippocampal tissue was dissected free of meninges, minced, and dissociated into a single-cell suspension by trituration. The cells were grown in Dulbecco’s modified Eagle’s medium supplemented with D-glucose (4500 mg/L), L-glutamine, sodium pyruvate (110 mg/L), 10% heat-inactivated horse serum, 10% heat-inactivated fetal bovine serum, and 1000 U/ml penicillin‒streptomycin. The cells were maintained at 37 °C in a humidified atmosphere containing 5% CO2.
H2O2 specific, highly sensitive, and fast on-and-off kinetics, a genetically encoded oROS-G plasmid kindly provided by Dr. Andre Berndt. oROS-G was cloned under the GFAP104 promoter and delivered into primary cultured hippocampal astrocytes via the NeoN^TM transfection system (Invitrogen). The cells were treated with various concentrations of Aβ (1 to 10 μM) or 6-OHDA (Tocris, 2547; 10 to 50 μM) to induce aberrant H2O2. For subsequent experiments, 5 μM Aβ and 30 μM 6-OHDA were selected on the basis of initial dose‒response studies. KDS12025 (10 μM) and sodium pyruvate (1 mM) were applied as indicated in each experiment. For live-cell imaging, astrocytes were maintained in a humidified chamber at 37 °C with 5% […] during imaging to preserve physiological conditions. Changes in the fluorescence of oROS-G were recorded via an A1 Nikon confocal microscope equipped with a temperature- and humidity-controlled stage. Images were captured every 20 min for up to 40 h (20for the 6-OHDA experiments) via the NIS-Elements software (Nikon, Japan) for time-lapse imaging. The excitation and emission wavelengths for oROS-G fluorescence were set to 485 nm and 538 nm, respectively. Endpoint fluorescence measurements were also collected for KDS12025 dose-dependent experiments. To analyze the fluorescence intensity, individual regions of interest (ROIs) were manually selected for each astrocyte via NIS-Elements software (Nikon, Japan). The fluorescence intensity changes were normalized to the baseline values (ΔF/F0) to quantify the H2O2 dynamics. To determine the EC50 of KDS12025, endpoint fluorescence intensity data from oROS-G experiments were normalized to those of the Aβ+vehicle control group. The normalized data were analyzed via GraphPad Prism software to fit a four-parameter logistic curve, yielding the EC50 value for the H2O2-decomposing activity of KDS12025.

C57BL/6J mice = test: PhenoMaster respiration and metabolic analysis; assay type: in vivo, mouse; parameters: energy expenditure (Fig. S8b) / total food consumption (Fig. S8c) / total drink consumption (Fig. S8d) / oxygen consumption (stats entry 2j): unit not given here
Protocol: For respiration and metabolic analysis, PhenoMaster (TSE Systems, Germany) was employed. All C57BL/6J mice aged 8–10 weeks underwent initial chamber habituation and gas calibration on day 0. Starting on day 3, the mice were administered KDS12025 dissolved in water at dosages of 0.1, 1, and 10 mg/kg/day (ad libitum drinking water). Respiratory and metabolic measurements, including oxygen consumption, carbon dioxide production, and the respiratory exchange ratio (RER, calculated as VCO2/VO2), as well as food and drink intake and energy expenditure, were conducted from day 4. The recording ends on day 8 with data collection.

fGiD mice = test: Immunohistochemistry of hippocampal CA1, fGiD mice; assay type: in vivo, mouse; conditions: fGiD+KDS, 3 mg/kg/day i.p. 16 days, Fig. 4e

T1 sequence (P68871 2-147 limits assumed): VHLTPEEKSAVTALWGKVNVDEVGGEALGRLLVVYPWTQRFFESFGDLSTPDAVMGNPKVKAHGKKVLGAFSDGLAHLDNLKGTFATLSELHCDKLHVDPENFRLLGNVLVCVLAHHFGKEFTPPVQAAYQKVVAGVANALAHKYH
T1 sequence (P69905 2-142 partner limits assumed): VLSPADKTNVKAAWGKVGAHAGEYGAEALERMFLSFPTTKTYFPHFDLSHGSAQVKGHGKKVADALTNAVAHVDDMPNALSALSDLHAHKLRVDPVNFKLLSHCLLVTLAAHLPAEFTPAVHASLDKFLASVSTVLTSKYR

CNc1ccc(NCCc2ccccc2OC)cc1.Cl [KDS12025, N^1-(2-methoxyphenethyl)-N^4-methylbenzene-1,4-diamine hydrochloride salt]
ΔG (ITC) (purified human Hb): -7.53 kcal/mol
ΔH (ITC) (purified human Hb): -580 kcal/mol
oROS-G H2O2 level ([1]; 6-OHDA 30 μM + KDS12025, Fig. 3k): 123.4±9.7
oROS-G H2O2 level, 40-h imaging ([1]; Aβ 5 μM + KDS12025 10 μM, Fig. 3h): 111.8±4.968
oROS-G intensity ([1]; Hbβ-shRNA, Aβ 5 μM + 0.1μM): 199.3
oROS-G intensity ([1]; Hbβ-shRNA, Aβ 5 μM + 1μM): 204.7
oROS-G intensity ([1]; Hbβ-shRNA, Aβ 5 μM + 10μM): 182.4
EC50 ([1]; Mus musculus, Astrocyte, Aβ 5 µM-treated astrocytes, oROS-G endpoint, read-out: EC50, reduction of Aβ-induced H2O2): 500 nM
oROS-G intensity ([1]; Sc-shRNA, Aβ 5 μM + 0.1μM): 100.5±13.5
oROS-G intensity ([1]; Sc-shRNA, Aβ 5 μM + 1μM): 112.3±24.1
oROS-G intensity ([1]; Sc-shRNA, Aβ 5 μM + 10μM): 83.4±13.5
oROS-G H2O2 level, 40-h imaging ([1]; putrescine 180 μM + KDS12025 10 μM, Fig. 3i): 96.12±6.634
carbon dioxide production (stats entry 2k) (C57BL/6J mice; 0.1mpk, dark): 3345
energy expenditure (Fig. S8b) (C57BL/6J mice; 0.1mpk, dark): 22.37±1.215
oxygen consumption (stats entry 2j) (C57BL/6J mice; 0.1mpk, dark): 4228
respiratory exchange ratio (stats entry 2l) (C57BL/6J mice; 0.1mpk, dark): 0.849
total drink consumption (Fig. S8d) (C57BL/6J mice; 0.1mpk, dark): 0.1272±0.009
total food consumption (Fig. S8c) (C57BL/6J mice; 0.1mpk, dark): 0.1543±0.018
carbon dioxide production (stats entry 2k) (C57BL/6J mice; 0.1mpk, full day): 3292
energy expenditure (Fig. S8b) (C57BL/6J mice; 0.1mpk, full day): 22.21±1.751
oxygen consumption (stats entry 2j) (C57BL/6J mice; 0.1mpk, full day): 4161
respiratory exchange ratio (stats entry 2l) (C57BL/6J mice; 0.1mpk, full day): 0.857
total drink consumption (Fig. S8d) (C57BL/6J mice; 0.1mpk, full day): 0.108±0.005
total food consumption (Fig. S8c) (C57BL/6J mice; 0.1mpk, full day): 0.126±0.0123
carbon dioxide production (stats entry 2k) (C57BL/6J mice; 0.1mpk, light): 3065
oxygen consumption (stats entry 2j) (C57BL/6J mice; 0.1mpk, light): 3923
respiratory exchange ratio (stats entry 2l) (C57BL/6J mice; 0.1mpk, light): 0.833
carbon dioxide production (stats entry 2k) (C57BL/6J mice; 1mpk, dark): 3167
energy expenditure (Fig. S8b) (C57BL/6J mice; 1mpk, dark): 21.29±0.7258
oxygen consumption (stats entry 2j) (C57BL/6J mice; 1mpk, dark): 4063
respiratory exchange ratio (stats entry 2l) (C57BL/6J mice; 1mpk, dark): 0.891
total drink consumption (Fig. S8d) (C57BL/6J mice; 1mpk, dark): 0.1220±0.0208
total food consumption (Fig. S8c) (C57BL/6J mice; 1mpk, dark): 0.1761±0.0164
carbon dioxide production (stats entry 2k) (C57BL/6J mice; 1mpk, full day): 3075
energy expenditure (Fig. S8b) (C57BL/6J mice; 1mpk, full day): 21.26±0.07088
oxygen consumption (stats entry 2j) (C57BL/6J mice; 1mpk, full day): 3871
respiratory exchange ratio (stats entry 2l) (C57BL/6J mice; 1mpk, full day): 0.883
total drink consumption (Fig. S8d) (C57BL/6J mice; 1mpk, full day): 0.0902±0.0248
total food consumption (Fig. S8c) (C57BL/6J mice; 1mpk, full day): 0.166±0.03508
carbon dioxide production (stats entry 2k) (C57BL/6J mice; 1mpk, light): 2916
energy expenditure (Fig. S8b) (C57BL/6J mice; 1mpk, light): 19.95±0.3562
oxygen consumption (stats entry 2j) (C57BL/6J mice; 1mpk, light): 3584
respiratory exchange ratio (stats entry 2l) (C57BL/6J mice; 1mpk, light): 0.860
total drink consumption (Fig. S8d) (C57BL/6J mice; 1mpk, light): 0.0790±0.0149
total food consumption (Fig. S8c) (C57BL/6J mice; 1mpk, light): 0.1032±0.009
carbon dioxide production (stats entry 2k) (C57BL/6J mice; 10mpk, dark): 3344
energy expenditure (Fig. S8b) (C57BL/6J mice; 10mpk, dark): 20.73±0.9735
oxygen consumption (stats entry 2j) (C57BL/6J mice; 10mpk, dark): 4216
respiratory exchange ratio (stats entry 2l) (C57BL/6J mice; 10mpk, dark): 0.877
total drink consumption (Fig. S8d) (C57BL/6J mice; 10mpk, dark): 0.1041±0.0394
total food consumption (Fig. S8c) (C57BL/6J mice; 10mpk, dark): 0.1572±0.01881
carbon dioxide production (stats entry 2k) (C57BL/6J mice; 10mpk, full day): 3120
energy expenditure (Fig. S8b) (C57BL/6J mice; 10mpk, full day): 19.14±0.6082
oxygen consumption (stats entry 2j) (C57BL/6J mice; 10mpk, full day): 3593
respiratory exchange ratio (stats entry 2l) (C57BL/6J mice; 10mpk, full day): 0.857
total drink consumption (Fig. S8d) (C57BL/6J mice; 10mpk, full day): 0.0776±0.01206
total food consumption (Fig. S8c) (C57BL/6J mice; 10mpk, full day): 0.1288±0.0108
carbon dioxide production (stats entry 2k) (C57BL/6J mice; 10mpk, light): 2900
energy expenditure (Fig. S8b) (C57BL/6J mice; 10mpk, light): 18.91±1.057
oxygen consumption (stats entry 2j) (C57BL/6J mice; 10mpk, light): 3753
respiratory exchange ratio (stats entry 2l) (C57BL/6J mice; 10mpk, light): 0.831
total drink consumption (Fig. S8d) (C57BL/6J mice; 10mpk, light): 0.05856±0.0075
total food consumption (Fig. S8c) (C57BL/6J mice; 10mpk, light): 0.09464±0.0095
mean GFAP intensity in the GFAP-positive area (fGiD mice): fGcon (49.2±2.7, n=9), fGiD (82.5±3.6, n=9), fGiD+KDS (59.0±2.5, n=9) One-way ANOVA with Tukey's multiple comparisons test, F(2,24) = 33.23, p < 0.001 fGcon vs. fGiD, p < 0.01; fGcon vs. fGiD+KDS, p = 0.07; fGiD vs. fGiD+KDS12025 (0.1mpk), p = 0.01
